Values of other authors as cited in patent US4337247A, “Tetrapeptidesemicarbazide derivatives and their production and use” (Takeda Chemical Industries, Ltd., priority 1979, dated 1982).

Conditions: for morphinomimetic activity: direct intracerebral administration; for analgesic effect: intravenous route

Substance	morphinomimetic activity	analgesic effect
H-Tyr-Gly-Gly-Phe-Leu-OH	show morphinomimetic activity	do not produce analgesic effects
β-endorphine (YGGFMTSEKSQTPLVTLFKNAIIKNAYKKGE; Beta-endorphin; UniProt P01189 237-267, looked up) [polypeptide consisting of 31 amino acids, considered to be derived from the carboxy-terminal of β-lipotrophine]	–	displays an overt analgesic action
H-Tyr-Gly-Gly-Phe-Met-OH (H-YGGFM-OH) [enkephalin, pentapeptide isolated from the pig brain]	show morphinomimetic activity	do not produce analgesic effects
